# Laboratory results from patent publication US12257352B2, “Compositions and methods for delivery of biomacromolecule agents” (The Regents of the University of Michigan, priority 2016, dated 2025).
# Peptide text beside a SMILES is read from it. * marks the point of attachment. FITC = O=C1OC2(c3ccc(O)cc3Oc3cc(O)ccc32)c2ccc(NC(=S)*)cc21
# Assay: Lymph node draining of antigen peptide and Cho-CpG (IVIS)
# Assay type: in vivo, C57BL/6 mice
# Conditions: 31 nmol FITC-tagged Ag subcutaneously at tail base, after 1 day
# Description: Female C57BL/6 mice of age 6-8 weeks were purchased from Harlan Laboratories. […] 24 hours after injection, mice were euthanized by carbon dioxide inhalation and axillary lymph nodes and inguinal lymph nodes were harvested and imaged with IVIS optical imaging system (Caliper Lifesciences).
# After 24 h, inguinal lymph nodes were harvested, and FITC or Cy5 fluorescence signal was measured with IVIS optical imaging system (Caliper Life Sciences).
smiles,measurement,value
CC[C@H](C)[C@H](NC(=O)[C@H](CO)NC(=O)[C@H](CO)NC(=O)[C@H](CO)NC(=O)[C@@H](N)CS)C(=O)N[C@H](C(=O)N[C@@H](CC(N)=O)C(=O)N[C@@H](Cc1ccccc1)C(=O)N[C@@H](CCC(=O)O)C(=O)N[C@@H](CCCCNC(=S)Nc1ccc2c(c1)C(=O)OC21c2ccc(O)cc2Oc2cc(O)ccc21)C(=O)N[C@@H](CC(C)C)C(=O)O)[C@@H](C)CC [free CSS-SIINFEK(FITC)L] (H-CSSSIINFEK(FITC)L-OH),FITC signal in inguinal dLNs,minimal FITC signal in inguinal dLNs
